Results from patent publication US11613538B2, “Method of inhibiting or reducing a viral infection” (PTC Therapeutics, Inc., priority 2009, dated 2023).

Tested on: hypoxia-induced VEGF production in HeLa cells
Assay: cells
Type: cell-based, human
Settings: Homo sapiens, HeLa

Structure (SMILES) | EC50 [µM]
O=C(Oc1ccc(Cl)cc1)N1CCc2c([nH]c3ccc(Cl)cc23)C1c1ccc(OCCCO)cc1 (stereo not drawn) [Compound 1111] | < 0.008
COc1ccc(OC(=O)N2CCc3c([nH]c4cc(F)ccc34)C2c2ccc(F)cc2)cc1 (stereo not drawn) [Compound 1458] | > 1
C=CCOc1ccc([C@H]2c3[nH]c4ccc(Cl)cc4c3CCN2C(=O)OCC)cc1 [Compound 1217] | < 0.008
O=C(Oc1ccc(Cl)cc1)N1CCc2c([nH]c3ccc(Cl)cc23)C1c1ccc(OCCCn2nccn2)cc1 (stereo not drawn) [Compound 1016] | > 1
O=C(Oc1ccc(Cl)cc1)N1CCc2c([nH]c3ccc(Cl)cc23)[C@H]1c1ccc(O)cc1 [Compound 1332] | > 1
CCC(CO)(CO)COc1ccc([C@H]2c3[nH]c4ccc(Cl)cc4c3CCN2C(=O)OCC2(C)CC2)cc1 [Compound 1384] | < 0.008
CC(C)(C)OC(=O)N1CCc2c([nH]c3ccc(Cl)cc23)[C@@H]1c1ccc(OCCCn2ccnn2)cc1 [Compound 1239] | < 0.008
C=CCOc1ccc([C@H]2c3[nH]c4ccc(Cl)cc4c3CCN2C(=O)OCC2CC2)cc1 [Compound 1365] | < 0.008
CCOC(=O)N1CCc2c([nH]c3ccc(Cl)cc23)[C@@H]1c1ccc(OCCCO)cc1 [Compound 1251] | < 0.008
CCOC(=O)N1CCc2c([nH]c3ccc(Cl)cc23)C1c1ccc(OCC(O)CNC(=O)CC)cc1 (stereo not drawn) [Compound 1464] | 0.008 to 0.04
CCCNC(=O)C(=O)N1CCc2c([nH]c3ccc(Cl)cc23)C1c1ccc(OC)cc1 (stereo not drawn) [Compound 1708] | 0.2 to 1
COc1ccc(C2c3[nH]c4ccc(Cl)cc4c3CCN2c2nc(O)cs2)cc1 (stereo not drawn) [Compound 1586] | 0.04 to 0.2
C#CCCOC(=O)N1CCc2c([nH]c3ccc(Cl)cc23)C1c1ccc(OCC(O)CO)cc1 (stereo not drawn) [Compound 1019] | 0.008 to 0.04
CC#CCOC(=O)N1CCc2c([nH]c3c(C)cccc23)C1c1ccc(OC)cc1 (stereo not drawn) [Compound 1430] | > 1
O=C(OCC1CCC1)N1CCc2c([nH]c3ccc(Cl)cc23)[C@@H]1c1ccc(OCCCO)cc1 [Compound 1368] | < 0.008
N#CCOc1ccc(C2c3[nH]c4ccc(Cl)cc4c3CCN2C(=O)Oc2ccc(F)cc2)cc1 (stereo not drawn) [Compound 1548] | 0.008 to 0.04
C#CCCOC(=O)N1CCc2c([nH]c3ccc(Cl)cc23)C1c1ccc(OCC2OCCO2)cc1 (stereo not drawn) [Compound 1049] | < 0.008
CCOC(=O)N1CCc2c([nH]c3ccc(Cl)cc23)C1c1ccc(OCC2OCCO2)cc1 (stereo not drawn) [Compound 1033] | 0.008 to 0.04
CCOC(=O)N1CCc2c([nH]c3ccc(Cl)cc23)C1c1ccc(OCC(=O)NCCOC)cc1 (stereo not drawn) [Compound 1015] | 0.04 to 0.2
CCOC(=O)N1CCc2c([nH]c3ccc(Cl)cc23)C1c1ccc(OC)cc1F (stereo not drawn) [Compound 1268] | < 0.008
O=C(OCc1ccccc1)N1CCc2c([nH]c3ccc(Cl)cc23)C1c1ccc(OCC2OCCO2)cc1 (stereo not drawn) [Compound 1056] | < 0.008
O=C(Oc1ccc(Cl)cc1)N1CCc2c([nH]c3cc(F)ccc23)C1c1ccc(OC(F)F)cc1 (stereo not drawn) [Compound 1463] | 0.04 to 0.2
O=C(Oc1ccc(Cl)cc1)N1CCc2c([nH]c3ccc(Cl)cc23)C1c1ccc(OCC2OCCO2)cc1 (stereo not drawn) [Compound 1053] | < 0.008
CCOC(=O)N1CCc2c([nH]c3ccc(Cl)cc23)[C@@H]1c1ccc(OCCC(O)Cn2cncn2)cc1 (stereo partly drawn) [Compound 1287] | 0.008 to 0.04
O=C(OC1CCCC1)N1CCc2c([nH]c3ccc(Cl)cc23)[C@@H]1c1ccc(OC[C@H](O)CO)cc1 [Compound 1322] | < 0.008
COc1ccc(C2c3[nH]c4cccc(Cl)c4c3CCN2C(=O)OCCF)cc1 (stereo not drawn) [Compound 1529] | 0.2 to 1
CC#CCOC(=O)N1CCc2c([nH]c3ccc(Cl)cc23)C1c1ccc(OC)c(F)c1 (stereo not drawn) [Compound 1232] | 0.04 to 0.2
CN1CCC(Oc2ccc([C@H]3c4[nH]c5ccc(Cl)cc5c4CCN3C(=O)Oc3ccc(Cl)cc3)cc2)CC1 [Compound 1694] | < 0.008
N#CCOc1ccc(C2c3[nH]c4ccc(Cl)cc4c3CCN2C(=O)OCCF)cc1 (stereo not drawn) [Compound 1544] | 0.008 to 0.04
COc1ccc(C2c3[nH]c4ccc(Cl)cc4c3CCN2C(=O)C(=O)Oc2ccccc2)cc1 (stereo not drawn) [Compound 1724] | > 1
